Assay results: US20260297087A1, “Pyridoimidazolone Compounds, Preparation Thereof and Therapeutic Uses Thereof” (Sanofi, priority 2023, published 2026)
Blank lines part the entries; values can stand above or below the molecule they belong to.

Experiments:
ERK5 = molecular target: T1, ERK5 (Homo sapiens, UniProt Q13164); assay: Inhibition of Cellular ERK5 Activity (cell-based assay, MEF2 luciferase reporter in SN12C cells); conditions: renal cancer cell line SN12C, doxycycline-induced MEKSDD, mean where repeated
T1 construct: MEF2-luciferase reporter
Method: (§1) Two assays were performed to assess the ERK5 inhibitory activity of compounds of the Examples, a cell-based assay and a cell-free biochemical assay. Where repeat measurements were taken, the value reported is a mean average.
The renal cancer cell line SN12C was transduced by a lentivirus pGreenFire1 MEF2 EF1 Neo (ref TR030VA-N) from SBI using standard infection protocol. pGreenFire1 MEF2 EF1 Neo allows the expression of luciferase gene under the control of minimal promoter with MEF2 transcriptional response elements. Cells harboring the reporter construct were selected by geneticin treatment. The selected cells were then transposed by a piggyback based plasmid pCM4007 allowing the expression of constitutively activated MEKSDD under control of TREG3 promoter, a doxycycline regulated promoter. Transposed cells were selected by puromycin treatment. Upon doxycycline treatment (1p g/ml) MEKSDD was expressed. MEKSDD activates ERK5 that phosphorylates MEF2C protein. Activated MEF2C protein can bind to its transcriptional response elements. Then the luciferase is expressed. In a 96-well plate (96F nuncleon refl37101 thermofisher), 50,000 cells were inoculated in 142.5 μl of RPMI medium containing 10% fetal calf serum, 1% glutamine, and 1 μg/ml doxycycline. After 24 hours, compounds were added in 7.5 μl culture medium (with 2% DMSO to give a final concentration of 0.1%) in order to obtain the desired concentration (0.3-1000 nM). The luciferase activity was measured using the Kit Bright Glo Luminescent Cell Assay Cat E2610 (Promega) according to the manufacturer's protocol. Luminescence was determined using 0.2 second reading/well using a Tecan SPARK. IC50 values were calculated using XLFIT5 for Microsoft Excel using method 205. The IC50 values represent the concentration of compound which inhibits the measurable luminescence signal by 50% as compared to DMSO-treated control cells.

[1] = molecular target: T2, ERK5 (activated catalytic domain) (Homo sapiens, UniProt Q13164); assay: Cell-Free Assay of ERK5 Inhibition (Time-Resolved FRET, 4EBP1 peptide phosphorylation); assay type: biochemical; conditions: ERK5 catalytic domain 4 nM, 1 mM ATP, 1 μM biotinylated 4EBP1 peptide, 30 min at 37° C.; mean where repeated; read-out: Cell-free assay (IC50 in nM)
T2 construct: purchased CarnaBiosciences 04-146
Method: as §1
An assay was performed to measure the capacity of each compound to inhibit ERK5 enzymatic activity. Compound potency was evaluated by Time-Resolved Forster Resonance Energy Transfer (FRET system). The activated catalytic domain of protein ERK5 (CarnaBiosciences #04-146) was mixed at 4 nM with varying concentrations of compound and incubated for 30 minutes at room temperature. A mixture of 1 mM ATP and 1 μM biotinylated synthetic peptide was added (Biosyntan GmbH). This synthetic peptide represents amino acids 30-52 of Eukaryotic translation initiation factor 4E-binding protein 1 (see, e.g., the sequence under accession No. NP_004086.1) biotinylated at the N-terminus. After 30 minutes at 37° C., the peptide phosphorylation by ERK5 was measured by addition of FRET reagents consisting of 12.5 μg/ml Streptavidin-XL665, 1 nM Anti-P-4EBP1 antibody and 300 ng/ml Anti-rabbit-K antibody. Following 90 minutes at room temperature fluorescent signals were read on the Pherastar FSX multimod detector from BMG Labtech (Exc° 340 nm, Em1 620 nm, Em2 665 nm). The IC50 values represent the concentration of compound which inhibits the measurable fluorescence signal by 50% as compared to the DMSO only control.

T1 sequence (Q13164 whole entry): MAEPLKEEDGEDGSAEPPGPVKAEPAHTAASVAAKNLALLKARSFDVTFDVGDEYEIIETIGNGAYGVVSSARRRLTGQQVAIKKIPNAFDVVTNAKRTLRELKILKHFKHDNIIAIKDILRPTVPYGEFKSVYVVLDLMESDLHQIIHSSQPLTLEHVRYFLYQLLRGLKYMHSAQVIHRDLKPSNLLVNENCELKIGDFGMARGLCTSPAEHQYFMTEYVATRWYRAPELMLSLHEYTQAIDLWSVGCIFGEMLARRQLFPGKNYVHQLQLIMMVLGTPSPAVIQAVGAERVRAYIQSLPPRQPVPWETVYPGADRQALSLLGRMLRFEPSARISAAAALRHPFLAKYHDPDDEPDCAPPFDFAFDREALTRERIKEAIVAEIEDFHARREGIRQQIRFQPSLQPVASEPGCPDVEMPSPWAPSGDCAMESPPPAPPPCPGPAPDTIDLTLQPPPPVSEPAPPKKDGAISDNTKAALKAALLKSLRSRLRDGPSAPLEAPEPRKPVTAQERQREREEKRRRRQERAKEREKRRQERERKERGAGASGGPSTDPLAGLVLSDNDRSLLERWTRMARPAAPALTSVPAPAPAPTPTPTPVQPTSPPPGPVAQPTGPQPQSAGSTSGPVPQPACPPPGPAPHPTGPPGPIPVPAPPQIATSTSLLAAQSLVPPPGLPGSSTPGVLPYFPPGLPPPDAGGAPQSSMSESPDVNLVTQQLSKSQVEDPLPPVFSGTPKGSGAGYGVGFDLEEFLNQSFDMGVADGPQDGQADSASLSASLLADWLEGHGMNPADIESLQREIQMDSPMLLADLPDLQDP
T2 sequence (Q13164 55-347 limits assumed): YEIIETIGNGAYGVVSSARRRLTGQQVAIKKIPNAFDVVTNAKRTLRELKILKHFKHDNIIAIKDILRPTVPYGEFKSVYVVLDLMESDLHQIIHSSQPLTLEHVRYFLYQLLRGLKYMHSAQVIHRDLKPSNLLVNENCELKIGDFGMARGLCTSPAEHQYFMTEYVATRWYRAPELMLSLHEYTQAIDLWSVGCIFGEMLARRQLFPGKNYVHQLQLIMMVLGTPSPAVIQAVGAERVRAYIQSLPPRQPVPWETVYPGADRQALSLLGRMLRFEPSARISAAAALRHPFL

Compound: CN1CCC(Oc2cnc3[nH]c(=O)n(C4CCN(C(=O)c5ccc(OC(F)(F)F)cc5)CC4)c3c2)CC1 [Example 5, 6-[(1-methyl-4-piperidyl)oxy]-1-[1-[4-(trifluoromethoxy)benzoyl]-4-piperidyl]-3H-imidazo[4,5-b]pyridin-2-one]
IC50 (ERK5): 206 nM
IC50 [1]: 150 nM

Compound: Nc1cc(OC(F)(F)F)ccc1C(=O)N1CCC(n2c(=O)[nH]c3ncc(C45CCC(C4)C5)cc32)CC1 [Example 32, 1-[1-[2-amino-4-(trifluoromethoxy)benzoyl]-4-piperidyl]-6-(1-bicyclo[2.1.1]hexanyl)-3H-imidazo[4,5-b]pyridin-2-one]
IC50 (ERK5): 347 nM
IC50 [1]: 1140 nM

Compound: Nc1cc(OC(F)(F)F)ccc1C(=O)N1CCC(n2c(=O)[nH]c3ncc(C4CCC4)cc32)CC1 [Example 29, 1-[1-[2-amino-4-(trifluoromethoxy)benzoyl]-4-piperidyl]-6-cyclobutyl-3H-imidazo[4,5-b]pyridin-2-one]
IC50 (ERK5): 213 nM
IC50 [1]: 420 nM

Compound: Nc1cc(OC(F)(F)F)ccc1C(=O)N1CCC(n2c(=O)[nH]c3ncc(N4CCO[C@@H](CO)C4)cc32)CC1 [Example 13, 1-[1-[2-Amino-4-(trifluoromethoxy)benzoyl]-4-piperidyl]-6-[(2R)-2-(hydroxymethyl)morpholin-4-yl]-3H-imidazo[4,5-b]pyridin-2-one]
IC50 (ERK5): 1330 nM
IC50 [1]: 225 nM

Compound: Nc1cc(S(F)(F)(F)(F)F)ccc1C(=O)N1CCC(n2c(=O)[nH]c3ncc(C4CCOCC4)cc32)C1 (racemic) [Example 49, (rac)-1-[1-[2-amino-4-(pentafluoro-λ^6-sulfanyl)benzoyl]pyrrolidin-3-yl]-6-tetrahydropyran-4-yl-3H-imidazo[4,5-b]pyridin-2-one]
IC50 (ERK5): 278 nM
IC50 [1]: 587 nM

Compound: Nc1cc(OC(F)(F)F)ccc1C(=O)N1CCC(n2c(=O)[nH]c3ncc([C@H]4CC[C@H](O)CC4)cc32)CC1 [Example 51, trans-1-[1-[2-amino-4-(trifluoromethoxy)benzoyl]-4-piperidyl]-6-(4-hydroxycyclohexyl)-3H-imidazo[4,5-b]pyridin-2-one]
IC50 (ERK5): 205 nM
IC50 [1]: 52 nM

Compound: Nc1cc(OC(F)(F)F)ccc1C(=O)N1CCC(n2c(=O)[nH]c3ncc(C4CCN(CC(F)(F)F)CC4)cc32)CC1 [Example 53, 1-[1-[2-amino-4-(trifluoromethoxy)benzoyl]-4-piperidyl]-6-[1-(2,2,2-trifluoroethyl)-4-piperidyl]-3H-imidazo[4,5-b]pyridin-2-one]
IC50 (ERK5): 184 nM
IC50 [1]: 405 nM

Compound: Nc1cc(OC(F)(F)F)ccc1C(=O)N1CCC(n2c(=O)[nH]c3ncc([C@H]4CC[C@@H](O)CC4)cc32)CC1 [Example 52, cis-1-[1-[2-amino-4-(trifluoromethoxy)benzoyl]-4-piperidyl]-6-(4-hydroxycyclohexyl)-3H-imidazo[4,5-b]pyridin-2-one]
IC50 (ERK5): 244 nM
IC50 [1]: 97 nM

Compound: O=C(c1ccc(S(F)(F)(F)(F)F)cc1)N1CCC(n2c(=O)[nH]c3ncc(C4CCOCC4)cc32)CC1 [Example 19, 1-[1-[4-(Pentafluoro-λ^6-sulfanyl)benzoyl]-4-piperidyl]-6-tetrahydropyran-4-yl-3H-imidazo[4,5-b]pyridin-2-one]
IC50 (ERK5): 199 nM
IC50 [1]: 257 nM

Compound: Nc1cc(OC(F)(F)F)ccc1C(=O)N1CCC(n2c(=O)[nH]c3ncc(CC4CCOC4)cc32)CC1 (racemic) [Example 23, (rac)-1-[1-[2-amino-4-(trifluoromethoxy)benzoyl]-4-piperidyl]-6-(tetrahydrofuran-3-ylmethyl)-3H-imidazo[4,5-b]pyridin-2-one]
IC50 (ERK5): 184 nM
IC50 [1]: 86 nM

Compound: CO[C@H]1CC[C@@H](c2cnc3[nH]c(=O)n(C4CCN(C(=O)c5ccc(OC(F)(F)F)cc5N)CC4)c3c2)CC1 [Example 46, cis-1-[1-[2-amino-4-(trifluoromethoxy)benzoyl]-4-piperidyl]-6-(4-methoxycyclohexyl)-3H-imidazo[4,5-b]pyridin-2-one]
IC50 (ERK5): 199 nM
IC50 [1]: 643 nM

Compound: CN1CCC(Oc2cnc3[nH]c(=O)n(C4CCN(C(=O)c5ccc(OC(F)(F)F)cc5)CC4)c3c2)C1 (racemic) [Example 9, (rac)-6-(1-methylpyrrolidin-3-yl)oxy-1-[1-[4-(trifluoromethoxy)benzoyl]-4-piperidyl]-3H-imidazo[4,5-b]pyridin-2-one]
IC50 (ERK5): 413 nM
IC50 [1]: 287 nM

Compound: O=C(c1ccc(S(F)(F)(F)(F)F)cc1)N1CCC(n2c(=O)[nH]c3ncc(C4CCOCC4)cc32)C1 (racemic) [Example 50, (rac)-1-[1-[4-(pentafluoro-λ^6-sulfanyl)benzoyl]pyrrolidin-3-yl]-6-tetrahydropyran-4-yl-3H-imidazo[4,5-b]pyridin-2-one]
IC50 (ERK5): 361 nM
IC50 [1]: 1620 nM

The next molecules have a lower IC50 (ERK5) than those just listed; values first:

IC50 (ERK5): 118 nM
IC50 [1]: 235 nM
Compound: CO[C@H]1CC[C@H](c2cnc3[nH]c(=O)n(C4CCN(C(=O)c5ccc(OC(F)(F)F)cc5)CC4)c3c2)CC1 [Example 26, trans-6-(4-methoxycyclohexyl)-1-[1-[4-(trifluoromethoxy)benzoyl]-4-piperidyl]-3H-imidazo[4,5-b]pyridin-2-one]

IC50 (ERK5): 140 nM
IC50 [1]: 684 nM
Compound: Nc1cc(OC(F)(F)F)ccc1C(=O)N1CCC(n2c(=O)[nH]c3ncc(C4CCNC(=O)C4)cc32)CC1 (racemic) [Example 22, (rac)-1-[1-[2-amino-4-(trifluoromethoxy)benzoyl]-4-piperidyl]-6-(2-oxo-4-piperidyl)-3H-imidazo[4,5-b]pyridin-2-one]

IC50 (ERK5): 168 nM
IC50 [1]: 291 nM
Compound: Nc1cc(OC(F)(F)F)ccc1C(=O)N1CCC(n2c(=O)[nH]c3ncc(C4CCCOC4)cc32)CC1 (racemic) [Example 40, (rac)-1-[1-[2-amino-4-(trifluoromethoxy)benzoyl]-4-piperidyl]-6-tetrahydropyran-3-yl-3H-imidazo[4,5-b]pyridin-2-one]

IC50 (ERK5): 42 nM
IC50 [1]: 395 nM
Compound: Nc1cc(OC(F)(F)F)ccc1C(=O)N1CCC(n2c(=O)[nH]c3ncc(C4CC5(CC(F)C5)C4)cc32)CC1 (stereo not shown) [Example 21, 1-[1-[2-amino-4-(trifluoromethoxy)benzoyl]-4-piperidyl]-6-(2-fluorospiro[3.3]heptan-6-yl)-3H-imidazo[4,5-b]pyridin-2-one]

IC50 (ERK5): 170 nM
IC50 [1]: 288 nM
Compound: Nc1cc(OC(F)(F)F)ccc1C(=O)N1CCC(n2c(=O)[nH]c3ncc(C45CCOCC4C5)cc32)CC1 (racemic) [Example 31, (rac)-1-[1-[2-amino-4-(trifluoromethoxy)benzoyl]-4-piperidyl]-6-(3-oxabicyclo[4.1.0]heptan-6-yl)-3H-imidazo[4,5-b]pyridin-2-one]

IC50 (ERK5): 74 nM
IC50 [1]: 150 nM
Compound: Nc1cc(OC(F)(F)F)ccc1C(=O)N1CCC(n2c(=O)[nH]c3ncc(OC4CCOC4)cc32)CC1 (single isomer, unassigned; isomer 1) [Example 43, 1-[1-[2-amino-4-(trifluoromethoxy)benzoyl]-4-piperidyl]-6-[tetrahydrofuran-3-yl]oxy-3H-imidazo[4,5-b]pyridin-2-one, Isomer 1]

IC50 (ERK5): 96 nM
IC50 [1]: 430 nM
Compound: O=C(c1ccc(OC(F)(F)F)cc1)N1CCC(n2c(=O)[nH]c3ncc(OC4CCOC4)cc32)CC1 (racemic) [Example 56, (rac)-6-tetrahydrofuran-3-yloxy-1-[1-[4-(trifluoromethoxy)benzoyl]-4-piperidyl]-3H-imidazo[4,5-b]pyridin-2-one]
